Test results taken from patent publication US12699067B2, “Electrochemical biosensor and the manufacturing method thereof” (China Medical University, priority 2023, dated 2026).

Tested on: human non-small cell lung cancer cell line (A549 cell line)
Assay: Detection of heat shock protein (Hsp70) released from paclitaxel-treated A549 cells with the Hsp70 electrochemical immunosensor
Assay type: cell-based
Conditions: A549 cell line treated with 0, 75, 100 μM Paclitaxel; culture solution as control; FIG. 12
Text: It was known that the expression of heat shock protein (Hsp70) was highly correlated with the growth of cancer cells. The present invention further uses Hsp70 electrochemical immunosensor (BSA/antiHsp70/EN-LC/Au@MnO2/MoO3) to detect heat shock protein (Hsp70) in human non-small cell lung cancer cell line (A549 cell line).
Therefore, the Hsp70 electrochemical immunosensor provided by the present invention could be used for detecting heat shock protein (Hsp70).

With `CC(=O)O[C@H]1C(=O)[C@@]2(C)[C@H]([C@H](OC(=O)c3ccccc3)[C@]3(O)C[C@H](OC(=O)[C@H](O)[C@@H](NC(=O)c4ccccc4)c4ccccc4)C(C)=C1C3(C)C)[C@]1(OC(C)=O)CO[C@@H]1C[C@@H]2O` [paclitaxel, Paclitaxel] the “curve (the radius) of Hsp70 electrochemical immunosensor, indicating bound heat shock protein (Hsp70) released by the cells” value was “increased”.
